Assay results: US10344060B2 (priority 2013, dated 2019)
Read-outs that look alike come from different tables or passages of the source.

How the values were obtained:
Assay in all cases: cell-based
hNav1.4 = hNav1.4 (Homo sapiens, UniProt P35499); type: cell-based; conditions: for Nav1.4/Nav1.7: ratio of PX tonic IC50 values; for IC50: read-out: PX hNav1.4 Tonic IC50
hNav1.7 = hNav1.7 (Homo sapiens, UniProt Q15858); type: cell-based; conditions: read-out: PX hNav1.7 Tonic IC50
hNav1.5 = hNav1.5 (Homo sapiens, UniProt Q14524); conditions: for Nav1.5/Nav1.7: ratio of PX tonic IC50 values; for IC50: read-out: PX hNav1.5 Tonic IC50
hNav1.5, sequence (Q14524 whole entry): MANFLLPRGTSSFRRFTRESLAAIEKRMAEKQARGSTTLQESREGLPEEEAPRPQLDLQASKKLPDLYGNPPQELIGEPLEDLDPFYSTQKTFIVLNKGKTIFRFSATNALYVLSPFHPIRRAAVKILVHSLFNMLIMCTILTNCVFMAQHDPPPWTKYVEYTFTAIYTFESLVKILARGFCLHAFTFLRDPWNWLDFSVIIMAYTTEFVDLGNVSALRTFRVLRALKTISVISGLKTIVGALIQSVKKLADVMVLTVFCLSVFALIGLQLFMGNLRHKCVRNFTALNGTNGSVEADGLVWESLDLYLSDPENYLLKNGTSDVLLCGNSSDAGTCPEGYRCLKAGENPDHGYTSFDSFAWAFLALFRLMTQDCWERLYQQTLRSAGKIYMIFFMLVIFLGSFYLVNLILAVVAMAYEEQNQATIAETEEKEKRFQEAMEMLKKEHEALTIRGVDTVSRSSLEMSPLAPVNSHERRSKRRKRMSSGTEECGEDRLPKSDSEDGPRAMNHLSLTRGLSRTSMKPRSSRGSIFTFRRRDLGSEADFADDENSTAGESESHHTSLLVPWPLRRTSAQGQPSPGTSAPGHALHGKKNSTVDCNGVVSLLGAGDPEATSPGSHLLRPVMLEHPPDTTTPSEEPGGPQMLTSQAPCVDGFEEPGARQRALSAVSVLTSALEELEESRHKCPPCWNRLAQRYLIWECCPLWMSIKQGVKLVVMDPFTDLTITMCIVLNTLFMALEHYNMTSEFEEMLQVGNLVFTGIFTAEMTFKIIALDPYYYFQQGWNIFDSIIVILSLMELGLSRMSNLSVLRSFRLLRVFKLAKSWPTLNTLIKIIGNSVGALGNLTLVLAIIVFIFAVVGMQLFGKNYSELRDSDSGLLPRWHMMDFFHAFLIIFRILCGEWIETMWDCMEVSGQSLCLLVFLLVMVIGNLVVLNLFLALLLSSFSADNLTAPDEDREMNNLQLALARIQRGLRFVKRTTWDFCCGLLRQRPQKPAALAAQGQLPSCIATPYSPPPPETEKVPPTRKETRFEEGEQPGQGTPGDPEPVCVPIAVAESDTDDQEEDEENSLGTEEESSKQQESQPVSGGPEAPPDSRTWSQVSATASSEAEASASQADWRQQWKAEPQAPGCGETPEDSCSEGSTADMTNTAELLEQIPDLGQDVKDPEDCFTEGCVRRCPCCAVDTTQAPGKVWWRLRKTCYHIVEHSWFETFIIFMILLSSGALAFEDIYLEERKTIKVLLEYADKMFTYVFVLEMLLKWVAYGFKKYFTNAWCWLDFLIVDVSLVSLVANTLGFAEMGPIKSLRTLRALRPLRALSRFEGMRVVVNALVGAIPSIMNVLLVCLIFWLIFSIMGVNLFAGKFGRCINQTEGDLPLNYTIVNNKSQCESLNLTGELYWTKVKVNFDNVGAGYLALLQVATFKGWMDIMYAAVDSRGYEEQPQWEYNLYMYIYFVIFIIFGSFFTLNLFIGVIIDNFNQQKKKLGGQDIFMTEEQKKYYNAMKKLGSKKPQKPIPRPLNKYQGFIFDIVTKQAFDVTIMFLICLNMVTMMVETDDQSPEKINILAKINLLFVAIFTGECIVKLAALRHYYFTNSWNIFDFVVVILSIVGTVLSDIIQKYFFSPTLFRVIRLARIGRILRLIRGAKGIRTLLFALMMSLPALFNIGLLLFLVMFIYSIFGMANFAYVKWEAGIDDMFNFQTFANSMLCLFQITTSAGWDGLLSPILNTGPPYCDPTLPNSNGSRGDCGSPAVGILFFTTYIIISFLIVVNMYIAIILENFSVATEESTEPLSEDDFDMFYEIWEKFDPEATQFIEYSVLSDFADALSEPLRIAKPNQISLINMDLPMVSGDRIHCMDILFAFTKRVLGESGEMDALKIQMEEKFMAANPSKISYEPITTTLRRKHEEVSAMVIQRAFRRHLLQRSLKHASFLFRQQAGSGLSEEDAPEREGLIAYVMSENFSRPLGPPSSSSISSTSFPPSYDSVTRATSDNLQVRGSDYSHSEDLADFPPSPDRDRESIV

[1] = Table 12, PatchXpress, tonic block

hNav1.4, sequence (P35499 whole entry): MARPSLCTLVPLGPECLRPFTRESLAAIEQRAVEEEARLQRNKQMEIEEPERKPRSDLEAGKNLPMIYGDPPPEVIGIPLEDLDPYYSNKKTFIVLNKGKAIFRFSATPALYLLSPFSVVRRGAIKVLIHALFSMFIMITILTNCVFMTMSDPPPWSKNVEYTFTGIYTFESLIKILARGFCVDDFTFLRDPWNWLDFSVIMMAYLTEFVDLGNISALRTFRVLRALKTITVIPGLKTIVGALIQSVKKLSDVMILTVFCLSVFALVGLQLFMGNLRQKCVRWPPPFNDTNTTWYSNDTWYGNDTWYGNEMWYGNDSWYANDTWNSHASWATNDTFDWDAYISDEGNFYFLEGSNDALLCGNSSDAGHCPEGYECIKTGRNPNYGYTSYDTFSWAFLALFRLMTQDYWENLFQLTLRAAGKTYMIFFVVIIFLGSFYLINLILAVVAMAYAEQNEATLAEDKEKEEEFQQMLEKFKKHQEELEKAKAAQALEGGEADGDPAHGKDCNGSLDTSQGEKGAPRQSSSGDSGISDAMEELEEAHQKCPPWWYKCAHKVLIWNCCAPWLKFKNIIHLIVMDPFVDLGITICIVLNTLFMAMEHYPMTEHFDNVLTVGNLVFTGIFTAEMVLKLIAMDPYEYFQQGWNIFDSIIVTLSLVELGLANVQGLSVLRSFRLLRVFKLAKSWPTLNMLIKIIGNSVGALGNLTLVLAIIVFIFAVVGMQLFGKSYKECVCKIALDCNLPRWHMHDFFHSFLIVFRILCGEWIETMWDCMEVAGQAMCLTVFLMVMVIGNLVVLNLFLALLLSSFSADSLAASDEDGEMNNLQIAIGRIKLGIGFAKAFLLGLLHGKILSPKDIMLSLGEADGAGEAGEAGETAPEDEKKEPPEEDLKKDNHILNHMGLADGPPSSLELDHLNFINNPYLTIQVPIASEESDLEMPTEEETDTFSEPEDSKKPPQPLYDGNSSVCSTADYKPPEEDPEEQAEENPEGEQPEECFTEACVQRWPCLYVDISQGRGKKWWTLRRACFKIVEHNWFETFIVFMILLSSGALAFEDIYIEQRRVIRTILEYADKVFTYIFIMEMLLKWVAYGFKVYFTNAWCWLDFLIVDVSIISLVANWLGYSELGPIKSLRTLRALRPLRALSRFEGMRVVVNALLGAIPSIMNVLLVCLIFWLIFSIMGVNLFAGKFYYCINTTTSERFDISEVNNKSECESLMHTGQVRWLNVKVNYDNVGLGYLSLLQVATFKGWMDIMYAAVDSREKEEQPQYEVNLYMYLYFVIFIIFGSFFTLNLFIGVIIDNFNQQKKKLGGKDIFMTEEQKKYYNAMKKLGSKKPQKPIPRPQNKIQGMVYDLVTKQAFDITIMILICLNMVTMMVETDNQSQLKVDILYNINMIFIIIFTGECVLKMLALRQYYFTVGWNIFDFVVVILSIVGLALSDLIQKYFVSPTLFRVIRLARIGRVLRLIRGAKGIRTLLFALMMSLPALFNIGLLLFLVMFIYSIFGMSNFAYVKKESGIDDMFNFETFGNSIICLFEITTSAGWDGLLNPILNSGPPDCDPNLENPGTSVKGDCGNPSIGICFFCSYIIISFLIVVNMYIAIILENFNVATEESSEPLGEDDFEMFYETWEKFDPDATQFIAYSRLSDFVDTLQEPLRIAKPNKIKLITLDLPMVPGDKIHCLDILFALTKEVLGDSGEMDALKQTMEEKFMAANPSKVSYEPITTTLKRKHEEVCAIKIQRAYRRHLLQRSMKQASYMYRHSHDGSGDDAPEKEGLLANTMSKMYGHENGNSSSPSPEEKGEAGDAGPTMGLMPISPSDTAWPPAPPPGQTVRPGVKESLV

SMILES | Nav1.4/Nav1.7 (hNav1.4; Table 12) | IC50 (hNav1.7; [1]) | Nav1.5/Nav1.7 (hNav1.5; Table 12) | other results
CCCC[C@@H]1NC(=O)[C@H](Cc2c[nH]c3ccccc23)NC(=O)[C@H](CCCCN)NC(=O)[C@H](CCC(N)=O)NC(=O)[C@@H](NC(=O)[C@H](Cc2ccc(O)cc2)NC(=O)[C@@H](N)Cc2cn(CCCCCCNC(=O)CCOCCOCCOCCOCCNC(=O)CCCC[C@@H]3SC[C@@H]4NC(=O)N[C@@H]43)nn2)CSSC[C@@H]2NC(=O)[C@@H]3CSSC[C@@H](C(=O)N[C@@H](CCCNC(=N)N)C(=O)N[C@@H](CCCCN)C(=O)N[C@H](C(=O)N[C@H](C(N)=O)[C@@H](C)CC)[C@@H](C)CC)NC(=O)[C@H](Cc4c[nH]c5ccccc45)NC(=O)[C@H](CC(C)C)NC(=O)[C@H](CCCCN)NC(=O)[C@H](CSSC[C@H](NC(=O)[C@H]([C@@H](C)O)NC(=O)[C@H](Cc4c[nH]c5ccccc45)NC1=O)C(=O)N[C@@H](CC(=O)O)C(=O)N[C@@H](CO)C(=O)N[C@@H](CCCCN)C(=O)N[C@@H](CCCNC(=N)N)C(=O)N[C@@H](C)C(=O)N3)NC(=O)[C@H](CCCNC(=N)N)NC(=O)[C@H](CC(C)C)NC(=O)CNC(=O)[C@H](CCC(=O)O)NC2=O [compound 898] | – | – | – | Nav1.4/Nav1.7 (hNav1.4; Table 13): 6; IC50 (hNav1.4): 0.0155 µM; IC50 (hNav1.7): 0.00248 µM; Nav1.5/Nav1.7 (hNav1.5; Table 13): 2067; IC50 (hNav1.5): 5.13 µM
C#CC[C@H](N)C(=O)N[C@@H](Cc1ccc(O)cc1)C(=O)N[C@H]1CSSC[C@@H]2NC(=O)[C@@H]3CSSC[C@@H](C(=O)N[C@@H](CCCNC(=N)N)C(=O)N[C@@H](CCCCN)C(=O)N[C@@H](CCC(N)=O)C(=O)N[C@H](C(N)=O)[C@@H](C)CC)NC(=O)[C@H](Cc4c[nH]c5ccccc45)NC(=O)[C@H](CC(C)C)NC(=O)[C@H](CCCCN)NC(=O)[C@H](CSSC[C@H](NC(=O)[C@H]([C@@H](C)O)NC(=O)[C@H](Cc4c[nH]c5ccccc45)NC(=O)[C@H](CCCC)NC(=O)[C@H](Cc4c[nH]c5ccccc45)NC(=O)[C@H](CCCCN)NC(=O)[C@H](CCC(N)=O)NC1=O)C(=O)N[C@@H](CC(=O)O)C(=O)N[C@@H](CO)C(=O)N[C@@H](CCCCN)C(=O)N[C@@H](CCCNC(=N)N)C(=O)N[C@@H](C)C(=O)N3)NC(=O)[C@H](CCCNC(=N)N)NC(=O)[C@H](CC(C)C)NC(=O)CNC(=O)[C@H](CCC(=O)O)NC2=O [compound 665] | 12 | 0.000912 µM | 3529 | IC50 (hNav1.4; [1]): 0.0107 µM; IC50 (hNav1.5; [1]): 3.22 µM
C#CC[C@H](N)C(=O)NCCOCCOCCOCCOCCC(=O)NCCCC[C@@H]1NC(=O)[C@H](CCCNC(=N)N)NC(=O)[C@H](CCCCN)NC(=O)[C@H](CO)NC(=O)[C@H](CC(=O)O)NC(=O)[C@@H]2CSSC[C@@H]3NC(=O)[C@H](CCCNC(=N)N)NC(=O)[C@H](CC(C)C)NC(=O)CNC(=O)[C@H](CCC(=O)O)NC(=O)[C@H](CSSC[C@H](NC(=O)[C@H](Cc4ccc(O)cc4)NC(=O)[C@@H](N)CC#N)C(=O)N[C@@H](CCC(N)=O)C(=O)N[C@@H](CCCCN)C(=O)N[C@@H](Cc4c[nH]c5ccccc45)C(=O)N[C@@H](CCCC)C(=O)N[C@@H](Cc4c[nH]c5ccccc45)C(=O)N[C@@H]([C@@H](C)O)C(=O)N2)NC(=O)[C@H](CSSC[C@@H](C(=O)N[C@@H](CCCNC(=N)N)C(=O)N[C@@H](CCCCN)C(=O)N[C@H](C(=O)N[C@H](C(N)=O)[C@@H](C)CC)[C@@H](C)CC)NC(=O)[C@H](Cc2c[nH]c4ccccc24)NC(=O)[C@H](CC(C)C)NC(=O)[C@H](CCCCN)NC3=O)NC1=O [compound 380] | 0 | 0.000845 µM | 0 | –
C#CC[C@H](N)C(=O)N[C@@H](Cc1ccc(O)cc1)C(=O)N[C@H]1CSSC[C@@H]2NC(=O)[C@@H]3CSSC[C@@H](C(=O)N[C@@H](CCCNC(=N)N)C(=O)N[C@@H](CCCCN)C(=O)N[C@H](C(=O)N[C@@H](Cc4c[nH]c5ccccc45)C(N)=O)[C@@H](C)CC)NC(=O)[C@H](Cc4c[nH]c5ccccc45)NC(=O)[C@H](CC(C)C)NC(=O)[C@H](CCCCN)NC(=O)[C@H](CSSC[C@H](NC(=O)[C@H]([C@@H](C)O)NC(=O)[C@H](Cc4c[nH]c5ccccc45)NC(=O)[C@H](CCCC)NC(=O)[C@H](Cc4c[nH]c5ccccc45)NC(=O)[C@H](CCCCN)NC(=O)[C@H](CCC(N)=O)NC1=O)C(=O)N[C@@H](CC(=O)O)C(=O)N[C@@H](CO)C(=O)N[C@@H](CCCCN)C(=O)N[C@@H](CCCNC(=N)N)C(=O)N[C@@H](C)C(=O)N3)NC(=O)[C@H](CCCNC(=N)N)NC(=O)[C@H](CC(C)C)NC(=O)CNC(=O)[C@H](CCC(=O)O)NC2=O [compound 296] | 8 | 0.00479 µM | 479 | IC50 (hNav1.4; [1]): 0.037 µM; IC50 (hNav1.5; [1]): 2.29 µM
C#CC[C@H](N)C(=O)N[C@H]1CSSC[C@@H]2NC(=O)[C@@H]3CSSC[C@@H](C(=O)N[C@@H](CCCNC(=N)N)C(=O)N[C@@H](CCCCN)C(=O)N[C@@H](CCC(=O)O)C(=O)N[C@H](C(N)=O)[C@@H](C)CC)NC(=O)[C@H](Cc4c[nH]c5ccccc45)NC(=O)[C@H](CC(C)C)NC(=O)[C@H](CCCCN)NC(=O)[C@H](CSSC[C@H](NC(=O)[C@H]([C@@H](C)O)NC(=O)[C@H](Cc4c[nH]c5ccccc45)NC(=O)[C@H](CCCC)NC(=O)[C@H](Cc4c[nH]c5ccccc45)NC(=O)[C@H](CCCCN)NC(=O)[C@H](CCC(N)=O)NC1=O)C(=O)N[C@@H](CC(=O)O)C(=O)N[C@@H](CO)C(=O)N[C@@H](CCCCN)C(=O)N[C@@H](CCCNC(=N)N)C(=O)N[C@@H](C)C(=O)N3)NC(=O)[C@H](CCCNC(=N)N)NC(=O)[C@H](CC(C)C)NC(=O)CNC(=O)[C@H](CCC(=O)O)NC2=O [compound 329] | 555 | – | 17167 | –
C#CC[C@H](N)C(=O)N[C@@H](Cc1ccc(O)cc1)C(=O)N[C@H]1CSSC[C@@H]2NC(=O)[C@@H]3CSSC[C@@H](C(=O)N[C@@H](CCCNC(=N)N)C(=O)N[C@@H](CCCCN)C(=O)N[C@H](C(=O)N[C@@H](Cc4c[nH]c5ccccc45)C(N)=O)[C@@H](C)CC)NC(=O)[C@H](Cc4c[nH]c5ccccc45)NC(=O)[C@H](CC(C)C)NC(=O)[C@H](CCCCN)NC(=O)[C@H](CSSC[C@H](NC(=O)[C@H]([C@@H](C)O)NC(=O)[C@H](Cc4c[nH]c5ccccc45)NC(=O)[C@H](Cc4ccccc4)NC(=O)[C@H](Cc4c[nH]c5ccccc45)NC(=O)[C@H](CCCCN)NC(=O)[C@H](CCC(N)=O)NC1=O)C(=O)N[C@@H](CC(=O)O)C(=O)N[C@@H](CO)C(=O)N[C@@H](CCCCN)C(=O)N[C@@H](CCCNC(=N)N)C(=O)N[C@@H](C)C(=O)N3)NC(=O)[C@H](CCC(=O)O)NC(=O)[C@H](CC(C)C)NC(=O)CNC(=O)[C@H](CCC(=O)O)NC2=O [compound 298] | 44 | – | 52 | –
CCCC[C@@H]1NC(=O)[C@H](Cc2c[nH]c3ccccc23)NC(=O)[C@H](CCCCN)NC(=O)[C@H](CCC(N)=O)NC(=O)[C@@H](NC(=O)[C@H](Cc2ccc(O)cc2)NC(=O)[C@H](CC#N)NC(=O)[C@@H](N)CCCCN)CSSC[C@@H]2NC(=O)[C@@H]3CSSC[C@@H](C(=O)N[C@@H](CCCNC(=N)N)C(=O)N[C@@H](CCCCN)C(=O)N[C@@H](CCC(=O)O)C(=O)N[C@H](C(N)=O)[C@@H](C)CC)NC(=O)[C@H](Cc4c[nH]c5ccccc45)NC(=O)[C@H](CC(C)C)NC(=O)[C@H](CCCCN)NC(=O)[C@H](CSSC[C@H](NC(=O)[C@H]([C@@H](C)O)NC(=O)[C@H](Cc4c[nH]c5ccccc45)NC1=O)C(=O)N[C@@H](CC(=O)O)C(=O)N[C@@H](CO)C(=O)N[C@@H](CCCCN)C(=O)N[C@@H](CCCNC(=N)N)C(=O)N[C@@H](CCCCNC(=O)[C@@H](N)Cc1cn(CCOCCOCCOCCOCCOCCOCCOCCOCCOCCOCCN)nn1)C(=O)N3)NC(=O)[C@H](CCCNC(=N)N)NC(=O)[C@H](CC(C)C)NC(=O)CNC(=O)[C@H](CCC(=O)O)NC2=O [compound 891] | – | – | – | Nav1.4/Nav1.7 (hNav1.4; Table 13): 66; Nav1.5/Nav1.7 (hNav1.5; Table 13): 655
C#CC[C@H](N)C(=O)NCCOCCOCCOCCOCCOCCOCCOCCOCCOCCOCCOCCOCCC(=O)NCCCC[C@@H]1NC(=O)[C@@H]2CSSC[C@H](NC(=O)[C@@H](N)Cc3ccc(O)cc3)C(=O)N[C@@H](CCC(N)=O)C(=O)N[C@@H](CCCCN)C(=O)N[C@@H](Cc3c[nH]c4ccccc34)C(=O)N[C@@H](CCCC)C(=O)N[C@@H](Cc3c[nH]c4ccccc34)C(=O)N[C@@H]([C@@H](C)O)C(=O)N[C@H]3CSSC[C@H](NC(=O)[C@H](CCC(=O)O)NC(=O)[C@H](CC(C)C)NC(=O)CNC1=O)C(=O)N[C@@H](CCCCN)C(=O)N[C@@H](CC(C)C)C(=O)N[C@@H](Cc1c[nH]c4ccccc14)C(=O)N[C@H](C(=O)N[C@@H](CCCNC(=N)N)C(=O)N[C@@H](CCCCN)C(=O)N[C@H](C(=O)N[C@@H](Cc1c[nH]c4ccccc14)C(N)=O)[C@@H](C)CC)CSSC[C@H](NC(=O)[C@H](C)NC(=O)[C@H](CCCNC(=N)N)NC(=O)[C@H](CCCCN)NC(=O)[C@H](CO)NC(=O)[C@H](CC(=O)O)NC3=O)C(=O)N2 [compound 292] | 2 | – | 3 | –
C#CC[C@H](N)C(=O)N[C@@H](Cc1ccc(O)cc1)C(=O)N[C@H]1CSSC[C@@H]2NC(=O)[C@@H]3CSSC[C@@H](C(=O)N[C@@H](CCCNC(=N)N)C(=O)N[C@@H](CCCCN)C(=O)N[C@@H](Cc4ccc(O)cc4)C(=O)N[C@H](C(N)=O)[C@@H](C)CC)NC(=O)[C@H](Cc4c[nH]c5ccccc45)NC(=O)[C@H](CC(C)C)NC(=O)[C@H](CCCCN)NC(=O)[C@H](CSSC[C@H](NC(=O)[C@H]([C@@H](C)O)NC(=O)[C@H](Cc4c[nH]c5ccccc45)NC(=O)[C@H](CCCC)NC(=O)[C@H](Cc4c[nH]c5ccccc45)NC(=O)[C@H](CCCCN)NC(=O)[C@H](CCC(N)=O)NC1=O)C(=O)N[C@@H](CC(=O)O)C(=O)N[C@@H](CO)C(=O)N[C@@H](CCCCN)C(=O)N[C@@H](CCCNC(=N)N)C(=O)N[C@@H](C)C(=O)N3)NC(=O)[C@H](CCC(=O)O)NC(=O)[C@H](CC(C)C)NC(=O)CNC(=O)[C@H](CCC(=O)O)NC2=O [compound 313] | 2261 | – | 10226 | –
